Test results as given in the kinase profiling compilation of Christmann-Franck et al. (2016).

Key:
Test in all cases: radiometric filter-binding kinase assay
EPHA2 (human) = EPHA2 (human) (UniProt P29317)
DYRK1A (human) = DYRK1A (human) (UniProt Q13627)
LCK (mouse) = details: accession and sequence are those of the human protein
PRKCZ (human) = PRKCZ (human) (UniProt Q05513); details: compound 10.0 µM
EEF2K (human) = EEF2K (human) (UniProt O00418)
IKBKE (human) = IKBKE (human) (UniProt Q14164)
PAK6 (human) = PAK6 (human) (UniProt Q9NQU5)
PAK4 (human) = PAK4 (human) (UniProt O96013)
PAK4 (human), sequence (O96013 whole entry, looked up): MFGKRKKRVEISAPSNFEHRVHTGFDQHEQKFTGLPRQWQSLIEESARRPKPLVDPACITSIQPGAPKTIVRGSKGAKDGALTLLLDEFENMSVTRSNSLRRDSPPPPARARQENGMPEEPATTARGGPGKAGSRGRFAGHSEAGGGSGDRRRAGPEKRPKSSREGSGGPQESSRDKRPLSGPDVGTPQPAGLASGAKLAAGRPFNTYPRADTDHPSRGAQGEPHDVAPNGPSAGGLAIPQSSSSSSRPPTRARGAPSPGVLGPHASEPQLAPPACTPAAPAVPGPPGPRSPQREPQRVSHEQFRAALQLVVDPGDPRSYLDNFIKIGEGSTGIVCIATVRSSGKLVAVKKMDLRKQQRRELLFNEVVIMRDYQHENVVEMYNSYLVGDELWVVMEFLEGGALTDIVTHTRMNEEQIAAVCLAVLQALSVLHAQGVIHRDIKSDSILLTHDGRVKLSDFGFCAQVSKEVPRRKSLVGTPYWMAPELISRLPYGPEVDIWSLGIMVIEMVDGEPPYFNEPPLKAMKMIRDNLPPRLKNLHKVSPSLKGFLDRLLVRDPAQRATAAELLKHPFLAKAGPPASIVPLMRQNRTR

CSNK2A1 (human) = CSNK2A1 (human) (UniProt P68400)
CSNK2A1 (human), sequence (P68400 whole entry, looked up): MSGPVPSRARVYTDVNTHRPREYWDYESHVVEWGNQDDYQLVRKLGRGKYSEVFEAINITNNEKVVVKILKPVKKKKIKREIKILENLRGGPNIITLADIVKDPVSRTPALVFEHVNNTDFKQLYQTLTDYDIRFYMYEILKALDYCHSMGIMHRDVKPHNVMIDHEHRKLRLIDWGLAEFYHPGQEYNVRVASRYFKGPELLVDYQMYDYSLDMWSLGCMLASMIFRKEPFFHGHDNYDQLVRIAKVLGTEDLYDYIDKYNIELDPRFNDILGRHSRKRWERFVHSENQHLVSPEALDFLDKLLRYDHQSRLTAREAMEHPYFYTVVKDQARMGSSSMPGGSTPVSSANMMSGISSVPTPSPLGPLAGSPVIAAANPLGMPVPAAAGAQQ

BTK (human) = BTK (human) (UniProt Q06187)
MAPK14 (human) = MAPK14 (human) (UniProt Q16539)
DYRK2 (human) = DYRK2 (human) (UniProt Q92630)
DYRK2 (human), sequence (Q92630 whole entry, looked up): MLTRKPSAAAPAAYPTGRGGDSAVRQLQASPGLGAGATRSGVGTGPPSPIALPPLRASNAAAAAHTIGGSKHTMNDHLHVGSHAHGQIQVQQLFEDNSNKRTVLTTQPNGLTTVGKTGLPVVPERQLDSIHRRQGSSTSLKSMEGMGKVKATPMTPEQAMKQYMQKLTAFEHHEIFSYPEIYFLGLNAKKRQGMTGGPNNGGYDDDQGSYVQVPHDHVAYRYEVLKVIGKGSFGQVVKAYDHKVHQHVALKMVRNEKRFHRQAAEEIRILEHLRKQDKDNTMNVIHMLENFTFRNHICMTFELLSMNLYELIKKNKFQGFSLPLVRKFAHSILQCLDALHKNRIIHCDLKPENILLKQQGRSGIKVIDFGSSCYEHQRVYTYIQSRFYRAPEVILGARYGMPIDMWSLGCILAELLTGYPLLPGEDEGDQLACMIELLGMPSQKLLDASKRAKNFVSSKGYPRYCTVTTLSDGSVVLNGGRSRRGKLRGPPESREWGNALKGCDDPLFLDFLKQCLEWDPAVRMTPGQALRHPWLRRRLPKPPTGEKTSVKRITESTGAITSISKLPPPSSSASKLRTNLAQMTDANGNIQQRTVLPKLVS

MARK3 (human) = MARK3 (human) (UniProt P27448)
EPHB3 (human) = EPHB3 (human) (UniProt P54753)
ROCK2 (rat) = details: accession and sequence are those of the human protein
CaMK1 (human) = CaMK1 (human) (UniProt Q14012)
MAPKAPK5 (human) = MAPKAPK5 (human) (UniProt Q8IW41)
MAPKAPK5 (human), sequence (Q8IW41 whole entry, looked up): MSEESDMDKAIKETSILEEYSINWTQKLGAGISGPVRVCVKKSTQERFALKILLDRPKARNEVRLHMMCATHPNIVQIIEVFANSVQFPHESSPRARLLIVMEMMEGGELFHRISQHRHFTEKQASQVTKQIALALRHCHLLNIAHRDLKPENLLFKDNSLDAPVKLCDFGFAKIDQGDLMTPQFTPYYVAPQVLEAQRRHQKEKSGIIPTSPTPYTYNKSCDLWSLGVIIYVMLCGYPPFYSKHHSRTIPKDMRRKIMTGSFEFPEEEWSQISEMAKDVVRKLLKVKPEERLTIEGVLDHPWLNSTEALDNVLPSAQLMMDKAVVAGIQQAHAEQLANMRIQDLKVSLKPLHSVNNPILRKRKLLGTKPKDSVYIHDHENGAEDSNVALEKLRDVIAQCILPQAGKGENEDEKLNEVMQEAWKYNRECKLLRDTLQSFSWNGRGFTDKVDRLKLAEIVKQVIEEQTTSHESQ

DYRK3 (human) = DYRK3 (human) (UniProt O43781)
HIPK2 (human) = HIPK2 (human) (UniProt Q9H2X6)
RPS6KA5 KD1 KD2 (human) = RPS6KA5 KD1 KD2 (human) (UniProt O75582)
RPS6KA5 KD1 KD2 (human), sequence (O75582 whole entry, looked up): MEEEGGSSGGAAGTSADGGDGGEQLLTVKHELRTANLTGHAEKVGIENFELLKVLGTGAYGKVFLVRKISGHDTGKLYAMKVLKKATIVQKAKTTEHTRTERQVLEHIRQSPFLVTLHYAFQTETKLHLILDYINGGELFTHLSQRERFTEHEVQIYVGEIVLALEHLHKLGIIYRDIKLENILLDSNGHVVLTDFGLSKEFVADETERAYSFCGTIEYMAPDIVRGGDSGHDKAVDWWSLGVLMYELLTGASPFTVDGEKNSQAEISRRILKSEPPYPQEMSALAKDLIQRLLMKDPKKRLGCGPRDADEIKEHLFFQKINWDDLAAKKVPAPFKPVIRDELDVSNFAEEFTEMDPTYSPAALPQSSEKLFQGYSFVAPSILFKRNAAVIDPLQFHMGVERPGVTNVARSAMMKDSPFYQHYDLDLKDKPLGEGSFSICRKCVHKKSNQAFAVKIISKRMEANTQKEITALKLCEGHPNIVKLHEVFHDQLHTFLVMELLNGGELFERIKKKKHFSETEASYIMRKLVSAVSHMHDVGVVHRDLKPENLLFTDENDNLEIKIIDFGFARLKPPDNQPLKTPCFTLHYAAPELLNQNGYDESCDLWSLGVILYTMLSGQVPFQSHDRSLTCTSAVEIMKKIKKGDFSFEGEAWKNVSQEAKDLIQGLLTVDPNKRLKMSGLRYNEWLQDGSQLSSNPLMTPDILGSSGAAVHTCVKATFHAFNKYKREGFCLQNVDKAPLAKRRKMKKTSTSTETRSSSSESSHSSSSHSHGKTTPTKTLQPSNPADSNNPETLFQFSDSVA

MAPK13 (human) = MAPK13 (human) (UniProt O15264)
MAPK11 (human) = MAPK11 (human) (UniProt Q15759)
NEK6 (human) = NEK6 (human) (UniProt Q9HC98)
NEK6 (human), sequence (Q9HC98 whole entry, looked up): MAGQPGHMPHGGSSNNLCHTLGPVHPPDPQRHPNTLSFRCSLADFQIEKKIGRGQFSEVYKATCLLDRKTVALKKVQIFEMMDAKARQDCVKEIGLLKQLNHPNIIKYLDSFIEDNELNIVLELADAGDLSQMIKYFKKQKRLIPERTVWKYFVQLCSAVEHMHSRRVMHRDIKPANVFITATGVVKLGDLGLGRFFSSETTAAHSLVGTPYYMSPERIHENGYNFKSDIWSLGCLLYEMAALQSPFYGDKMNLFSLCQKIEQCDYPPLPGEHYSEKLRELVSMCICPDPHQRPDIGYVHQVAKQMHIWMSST

MST4 (human) = MST4 (human) (UniProt Q9P289)
MST4 (human), sequence (Q9P289 whole entry, looked up): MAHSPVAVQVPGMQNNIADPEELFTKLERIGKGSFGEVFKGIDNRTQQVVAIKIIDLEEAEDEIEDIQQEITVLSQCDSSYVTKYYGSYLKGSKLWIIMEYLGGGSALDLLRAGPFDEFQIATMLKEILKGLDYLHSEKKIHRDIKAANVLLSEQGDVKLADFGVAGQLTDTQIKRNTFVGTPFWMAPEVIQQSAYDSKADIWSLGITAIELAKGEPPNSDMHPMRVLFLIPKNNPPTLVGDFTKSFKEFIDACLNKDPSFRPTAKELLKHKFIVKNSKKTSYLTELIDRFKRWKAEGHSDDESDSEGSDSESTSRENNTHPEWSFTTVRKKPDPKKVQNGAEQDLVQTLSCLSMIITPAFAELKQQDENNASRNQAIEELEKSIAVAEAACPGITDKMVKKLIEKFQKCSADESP

[1] = test system: AKT1 (human), P31749 [S473D]
AKT1 (human), P31749 [S473D], sequence (P31749 whole entry S473D, looked up): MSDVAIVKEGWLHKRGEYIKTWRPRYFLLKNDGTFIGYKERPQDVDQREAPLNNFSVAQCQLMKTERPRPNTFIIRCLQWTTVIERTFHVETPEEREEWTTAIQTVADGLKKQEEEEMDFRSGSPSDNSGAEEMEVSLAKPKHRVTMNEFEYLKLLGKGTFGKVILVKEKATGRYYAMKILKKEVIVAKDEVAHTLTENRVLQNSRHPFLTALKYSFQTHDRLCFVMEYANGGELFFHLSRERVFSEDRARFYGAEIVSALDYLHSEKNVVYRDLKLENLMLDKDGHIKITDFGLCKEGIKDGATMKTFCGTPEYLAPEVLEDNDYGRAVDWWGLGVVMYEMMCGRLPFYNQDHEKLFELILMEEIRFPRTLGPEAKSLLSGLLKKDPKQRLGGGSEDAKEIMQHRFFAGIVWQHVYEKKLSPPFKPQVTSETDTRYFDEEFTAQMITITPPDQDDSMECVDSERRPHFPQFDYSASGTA

PAK7 (human) = PAK7 (human) (UniProt Q9P286)
PAK7 (human), sequence (Q9P286 whole entry, looked up): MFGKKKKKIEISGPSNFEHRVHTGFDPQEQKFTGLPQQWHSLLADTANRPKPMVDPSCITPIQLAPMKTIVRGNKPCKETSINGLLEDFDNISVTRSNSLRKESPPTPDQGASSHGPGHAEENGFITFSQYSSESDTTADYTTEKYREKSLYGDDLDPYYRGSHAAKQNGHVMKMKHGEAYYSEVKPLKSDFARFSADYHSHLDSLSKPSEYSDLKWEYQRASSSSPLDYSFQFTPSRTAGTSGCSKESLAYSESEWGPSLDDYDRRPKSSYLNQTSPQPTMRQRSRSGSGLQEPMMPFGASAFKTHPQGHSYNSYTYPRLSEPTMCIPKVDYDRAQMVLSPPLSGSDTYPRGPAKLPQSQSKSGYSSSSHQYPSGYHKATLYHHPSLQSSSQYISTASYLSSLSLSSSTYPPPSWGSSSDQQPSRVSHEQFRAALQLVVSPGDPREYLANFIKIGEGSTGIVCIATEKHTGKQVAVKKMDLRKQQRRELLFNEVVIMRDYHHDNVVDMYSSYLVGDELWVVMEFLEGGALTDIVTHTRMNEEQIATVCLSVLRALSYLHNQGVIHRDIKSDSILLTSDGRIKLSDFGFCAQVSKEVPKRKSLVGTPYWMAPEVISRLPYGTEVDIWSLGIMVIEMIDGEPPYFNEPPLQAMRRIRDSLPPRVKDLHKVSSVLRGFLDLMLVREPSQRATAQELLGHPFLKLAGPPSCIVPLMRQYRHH

SMILES: O=C1Nc2nc(-c3c(O)cccc3OCC3CC3)cc(C3CCCNC3)c2CO1 (stereo unspecified)
- residual activity (EPHA2 (human); compound 1.0 µM): 96%
- residual activity (EPHA2 (human); compound 10.0 µM): 84%
- residual activity (DYRK1A (human); compound 1.0 µM): 99%
- residual activity (DYRK1A (human); compound 10.0 µM): 82%
- residual activity (LCK (mouse); compound 1.0 µM): 88%
- residual activity (LCK (mouse); compound 10.0 µM): 74%
- residual activity (PRKCZ (human)): 10%
- residual activity (EEF2K (human); compound 1.0 µM): 88%
- residual activity (EEF2K (human); compound 10.0 µM): 67%
- residual activity (IKBKE (human); compound 1.0 µM): 83%
- residual activity (IKBKE (human); compound 10.0 µM): 74%
- residual activity (PAK6 (human); compound 1.0 µM): 72%
- residual activity (PAK6 (human); compound 10.0 µM): 78%
- residual activity (PAK4 (human); compound 1.0 µM): 89%
- residual activity (PAK4 (human); compound 10.0 µM): 54%
- residual activity (CSNK2A1 (human); compound 1.0 µM): 95%
- residual activity (CSNK2A1 (human); compound 10.0 µM): 70%
- residual activity (BTK (human); compound 1.0 µM): 100%
- residual activity (BTK (human); compound 10.0 µM): 83%
- residual activity (MAPK14 (human); compound 1.0 µM): 91%
- residual activity (MAPK14 (human); compound 10.0 µM): 78%
- residual activity (DYRK2 (human); compound 1.0 µM): 99%
- residual activity (DYRK2 (human); compound 10.0 µM): 77%
- residual activity (MARK3 (human); compound 1.0 µM): 100%
- residual activity (MARK3 (human); compound 10.0 µM): 94%
- residual activity (EPHB3 (human); compound 1.0 µM): 89%
- residual activity (EPHB3 (human); compound 10.0 µM): 93%
- residual activity (ROCK2 (rat); compound 1.0 µM): 73%
- residual activity (ROCK2 (rat); compound 10.0 µM): 39%
- residual activity (CaMK1 (human); compound 1.0 µM): 54%
- residual activity (CaMK1 (human); compound 10.0 µM): 13%
- residual activity (MAPKAPK5 (human); compound 1.0 µM): 74%
- residual activity (MAPKAPK5 (human); compound 10.0 µM): 58%
- residual activity (DYRK3 (human); compound 1.0 µM): 71%
- residual activity (DYRK3 (human); compound 10.0 µM): 24%
- residual activity (HIPK2 (human); compound 1.0 µM): 84%
- residual activity (HIPK2 (human); compound 10.0 µM): 34%
- residual activity (RPS6KA5 KD1 KD2 (human); compound 1.0 µM): 71%
- residual activity (RPS6KA5 KD1 KD2 (human); compound 10.0 µM): 31%
- residual activity (MAPK13 (human); compound 1.0 µM): 88%
- residual activity (MAPK13 (human); compound 10.0 µM): 73%
- residual activity (MAPK11 (human); compound 1.0 µM): 91%
- residual activity (MAPK11 (human); compound 10.0 µM): 74%
- residual activity (NEK6 (human); compound 1.0 µM): 98%
- residual activity (NEK6 (human); compound 10.0 µM): 93%
- residual activity (MST4 (human); compound 1.0 µM): 105%
- residual activity (MST4 (human); compound 10.0 µM): 85%
- residual activity ([1]; compound 1.0 µM): 87%
- residual activity ([1]; compound 10.0 µM): 55%
- residual activity (PAK7 (human); compound 1.0 µM): 82%
- residual activity (PAK7 (human); compound 10.0 µM): 72%
